# Assay results as given in patent US20240101572A1, “DIHYDROOXADIAZINONE COMPOUND AND PHARMACEUTICAL USE THEREOF” (Japan Tobacco Inc., priority 2022, published 2024).
# Where two headings read alike, the source gives them in different places.
# How the values were obtained:
# full-length human PLD2 = full-length human PLD2 (Homo sapiens (Human), UniProt O14939); test: Evaluation of human PLD2 enzyme inhibitory activity (Amplex Red / choline oxidase fluorescence); type: biochemical
# Method: A method for measuring human PLD2 enzyme inhibitory activity using an enzyme in which a FLAG-tag is added to the N-terminus of full-length human PLD2 (1-933 amino acids) is shown below.
# (§1) DNA fragment in which a FLAG-tag sequence is added to the 5′-end of full-length human PLD2 was amplified by PCR method, using commercially available human PLD2 gene (Promega KK) as a template. The amplified DNA fragment was fused with vector pVL1393 for baculovirus production (Pharmingen) digested with BamHI and EcoRI, using In-Fusion HD Cloning Kit (Takara Bio). The full-length human PLD2-expression plasmid DNA for baculovirus was isolated from Escherichia coli DH5a (TOYOBO) transformed with the obtained In-Fusion reaction product. Next, DNA fragment in which a FLAG-tag sequence is added to the 5′-end of full-length human PLD2 was amplified by PCR method, using the full-length human PLD2-expression plasmid DNA for baculovirus as a template. The amplified DNA fragment was fused with a DNA fragment in which a linker sequence is introduced into pcDNA3.4-TOPO (Life Technologies), using In-Fusion HD Cloning Kit (Takara Bio). The full-length human PLD2-expression plasmid DNA for animal cells was isolated from Escherichia coli DH5a transformed with the obtained In-Fusion reaction product. The base sequence of the full-length human PLD2 cloned into vector was determined by a Dye Terminator method using BigDye Terminator v3.1 Cycle Sequencing Kit (Applied Biosystems). The determined sequence was a sequence in which the FLAG-tag sequence was inserted at the 5′-end of the full-length human PLD2 (GenBank Accession Number: NM 002663).
# (§2) Expi293F cells (Life Technologies) were cultured with shaking using Expi293 Expression Medium (Life Technologies) as a medium at 37° C. in the presence of 8% CO2. The gene introduction reagent PEI was prepared by dissolving Polyethylenimine Max (nominally MW 40,000) (Polysciences) in MilliQ water, adjusting the pH of the solution to 7.0 with NaOH to obtain a 1 mg/mL solution, and then filtering the solution through 0.22 μm filter. The full-length human PLD2-expression plasmid DNA for animal cells was transfected into Expi293F cells using PEI, and after 48 hours of shaking culture, the cells were collected and stored at −80° C.
# (§3) To the full-length human PLD2-expressed cells was added a Homogenate buffer (20 mmol/L Na-phosphate pH 7.5, 250 mmol/L NaCl, 1 mmol/L MgCl2, 1% β-OG, 0.05 mmol/L DTT+complete EDTA-free (Roche Diagnostics K.K.)), and the cells were lysed by Microfluidizer Processor M-110EH (Mizuho Kogyo Co., Ltd.). The lysate was centrifuged at 10,100×g at 4° C. for 15 minutes, and the supernatant was collected and filtered through 0.45 μm filter. To the centrifuged supernatant was added ANTI-FLAG M2 Affinity Gel (SIGMA-Aldrich) resin equilibrated with a Homogenate buffer, and the mixed solution was stirred at 4° C. for 1 hr or more. The mixed solution was loaded onto Poly-Prep column, and the resin was washed with a Wash buffer (20 mmol/L Na-phosphate pH 7.5, 150 mmol/L NaCl, 1 mmol/L MgCl2, 0.02% Triton, 0.05 mmol/L DTT). A Wash buffer containing 400 μg/mL DYKDDDDK Peptide (Scrum Inc.) was added to the column to elute the protein bound to the resin. The eluted fractions were subjected to SDS-PAGE followed by CBB staining to identify the fractions containing the full-length human PLD2. The eluted fractions of the full-length human PLD2 were collected and concentrated using Amicon Ultra-15 100k (Merck Millipore). The concentrated fractions were collected, flash-frozen in liquid nitrogen and stored at −80° C.
# (§4) A DMSO or test substance solution (the DMSO final concentration: 5%) prepared by diluting DMSO or test substance with an Assay buffer (50 mmol/L HEPES pH 7.5, 80 mmol/L KCl, 3 mmol/L EGTA, 3.6 mmol/L MgCl2, 0.01% NP-40, 0.1% BSA), and the solution was added to a 384 well Assay Plate (Black, Polystyrene, Non-Treated, Cat No. 3573, Corning) by 5 μL/well. […]
# full-length human PLD1 = full-length human PLD1 (Homo sapiens (Human), UniProt Q13393); test: Evaluation of human PLD1 enzyme inhibitory activity (Amplex Red / choline oxidase fluorescence); type: biochemical
# Sequence of full-length human PLD1 (Q13393 other isoform, or with tags, fused parts or gaps): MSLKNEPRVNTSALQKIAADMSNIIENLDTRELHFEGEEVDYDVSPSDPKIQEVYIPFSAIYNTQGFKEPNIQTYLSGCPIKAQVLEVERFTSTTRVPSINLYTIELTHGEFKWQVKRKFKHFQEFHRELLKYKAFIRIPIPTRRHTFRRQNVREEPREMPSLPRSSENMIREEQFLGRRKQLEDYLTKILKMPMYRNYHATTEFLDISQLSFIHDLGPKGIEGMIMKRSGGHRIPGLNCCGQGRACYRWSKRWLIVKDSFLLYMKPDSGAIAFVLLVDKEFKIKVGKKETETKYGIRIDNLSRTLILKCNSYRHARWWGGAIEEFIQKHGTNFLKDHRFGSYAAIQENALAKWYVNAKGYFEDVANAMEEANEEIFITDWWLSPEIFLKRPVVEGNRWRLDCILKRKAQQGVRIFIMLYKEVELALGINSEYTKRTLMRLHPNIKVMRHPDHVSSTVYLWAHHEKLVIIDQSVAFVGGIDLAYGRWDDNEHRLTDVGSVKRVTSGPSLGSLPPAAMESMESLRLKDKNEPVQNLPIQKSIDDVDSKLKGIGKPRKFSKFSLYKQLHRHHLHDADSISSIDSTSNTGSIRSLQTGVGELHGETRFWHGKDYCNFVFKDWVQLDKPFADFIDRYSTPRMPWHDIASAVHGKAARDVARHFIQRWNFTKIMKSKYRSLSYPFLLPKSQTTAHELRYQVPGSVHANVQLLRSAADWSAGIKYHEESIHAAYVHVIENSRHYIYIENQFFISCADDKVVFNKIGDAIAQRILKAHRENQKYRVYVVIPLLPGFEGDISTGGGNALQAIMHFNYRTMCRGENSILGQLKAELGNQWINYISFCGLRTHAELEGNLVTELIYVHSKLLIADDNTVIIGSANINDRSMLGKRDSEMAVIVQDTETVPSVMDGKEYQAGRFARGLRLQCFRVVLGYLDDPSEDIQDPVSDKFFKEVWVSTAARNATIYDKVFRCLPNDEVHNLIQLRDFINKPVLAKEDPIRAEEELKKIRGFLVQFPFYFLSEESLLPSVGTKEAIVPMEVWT
# Method: A method for measuring human PLD1 enzyme inhibitory activity using an enzyme in which a FLAG-tag is added to the N-terminus of full-length human PLD1 (1-1036 amino acids) is shown below.
# as §1, with “PLD1” for “PLD2”, “PLD1-expression” for “PLD2-expression”, “NM_001130081).” for “NM 002663).”
# as §2, with “PLD1-expression” for “PLD2-expression”
# as §3, with “PLD1-expressed” for “PLD2-expressed”, “PLD1.” for “PLD2.”, “PLD1” for “PLD2”
# as §4
# [1] = full-length human PLD2 enzyme, read-out: PLD2 IC50
# [2] = full-length human PLD1 enzyme, read-out: PLD1 IC50
# Sequence of full-length human PLD2 (O14939 whole entry, the tested form may be a part): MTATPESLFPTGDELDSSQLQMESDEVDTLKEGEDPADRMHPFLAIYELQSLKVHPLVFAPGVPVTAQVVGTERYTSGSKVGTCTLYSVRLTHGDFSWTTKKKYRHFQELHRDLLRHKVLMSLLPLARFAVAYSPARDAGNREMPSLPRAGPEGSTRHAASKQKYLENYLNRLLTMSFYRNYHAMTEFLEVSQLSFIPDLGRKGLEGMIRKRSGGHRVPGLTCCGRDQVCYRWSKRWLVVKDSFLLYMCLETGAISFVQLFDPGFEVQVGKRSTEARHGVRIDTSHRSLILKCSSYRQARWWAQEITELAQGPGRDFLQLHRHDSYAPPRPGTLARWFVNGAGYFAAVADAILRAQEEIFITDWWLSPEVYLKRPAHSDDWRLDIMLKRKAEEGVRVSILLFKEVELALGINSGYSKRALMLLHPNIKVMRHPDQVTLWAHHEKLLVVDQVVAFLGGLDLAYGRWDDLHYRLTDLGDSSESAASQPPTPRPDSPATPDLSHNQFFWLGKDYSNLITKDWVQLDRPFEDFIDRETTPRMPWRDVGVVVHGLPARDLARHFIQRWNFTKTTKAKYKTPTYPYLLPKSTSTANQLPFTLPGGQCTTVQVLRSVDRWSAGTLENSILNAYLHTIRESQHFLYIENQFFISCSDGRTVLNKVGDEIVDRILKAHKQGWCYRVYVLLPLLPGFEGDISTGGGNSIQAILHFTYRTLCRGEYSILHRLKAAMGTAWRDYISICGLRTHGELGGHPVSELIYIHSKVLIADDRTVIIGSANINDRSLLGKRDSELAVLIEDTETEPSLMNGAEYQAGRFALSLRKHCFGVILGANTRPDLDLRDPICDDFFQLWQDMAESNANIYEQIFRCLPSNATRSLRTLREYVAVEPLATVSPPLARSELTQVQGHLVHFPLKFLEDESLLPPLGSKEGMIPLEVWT
Compound,IC50 (full-length human PLD2; [1]) [nM],IC50 (full-length human PLD1; [2]) [nM],further results
CNC(=O)C(=O)N[C@@H](C)CN1CCC2(CC1)OC(=O)NN=C2c1ccc(C#N)cc1Br [Example 206],13,36,–
CNC(=O)C(=O)N[C@@H](C)C[C@H]1CC[C@]2(CC1)OC(=O)NN=C2c1ccc(F)cc1I [Example 139],< 10,< 10,–
Cc1cc(C(=O)N[C@@H](C)C[C@H]2CC[C@]3(CC2)OC(=O)NN=C3c2cnc(C3CC3)cc2Cl)[nH]n1 [Example 266],< 10,15,–
CNC(=O)C(=O)N[C@@H](C)CN1CCC2(CC1)OC(=O)NN=C2c1cn(C)nc1I [Example 2-043],152,33,–
C[C@@H](CN1CCC2(CC1)OC(=O)NN=C2c1ccc(F)cc1Cl)NC(=O)c1cc(C(F)(F)F)[nH]n1 [Example 100],33,41,–
Cc1cc(C(=O)N[C@@H](C)C[C@]2(F)CC[C@@]3(CC2)OC(=O)NN=C3c2cc(C#N)ccc2Br)[nH]n1 [Example 311],< 10,15,–
CC(=O)NCC(=O)N[C@@H](C)C[C@H]1CC[C@]2(CC1)OC(=O)NN=C2c1ccc(F)cc1Br [Example 213],115,86,–
C[C@@H](C[C@H]1CC[C@]2(CC1)OC(=O)NN=C2c1cc(Cl)ccc1Cl)NC(=O)c1cc2ccccn2c1 [Example 323],< 10,10,–
Cc1cc(C(=O)N[C@@H](C)C[C@H]2CC[C@]3(CC2)OC(=O)NN=C3c2cnc(N3CC(F)(F)C3)cc2C)[nH]n1 [Example 273],< 10,19,–
[2H]C([2H])([2H])NC(=O)C(=O)N[C@@H](C)C[C@]1(C#N)CC[C@@]2(CC1)OC(=O)NN=C2c1ccccc1Br [Example 2-164],–,–,"IC50 (full-length human PLD2; column 2 of continuation tables 2-12 to 2-14, read-out: human PLD2 enzyme inhibitory activity IC50): < 10 nM; IC50 (full-length human PLD1; column 1 of continuation tables 2-12 to 2-14, read-out: human PLD1 enzyme inhibitory activity IC50): < 10 nM"
CNC(=O)C(=O)N[C@@H](C)C[C@H]1CC[C@]2(CC1)OC(=O)NN=C2c1cnc(N2CCC(F)(F)C2)cc1Cl [Example 241],< 10,17,–
Cc1cc(C(=O)N[C@@H](C)CN2CCC3(CC2)OC(=O)NN=C3c2cc(Br)c(F)cc2Cl)[nH]n1 [Example 2-016],< 10,19,–
"CNC(=O)C(=O)N[C@@H](C)C[C@H]1CC[C@]2(CC1)OC(=O)NN=C2c1cc(C#N)ccc1Br [Example 198, N^1—((S)-1-(cis-5-(2-bromo-5-cyanophenyl)-2-oxo-1-oxa-3,4-diazaspiro[5.5]undec-4-en-9-yl)propan-2-yl)-N^2-methyloxamide]",< 10,11,–
CNC(=O)C(=O)N[C@@H](C)CN1CCC2(CC1)OC(=O)NN=C2c1ccccc1SC(F)(F)F [Example 2-021],15,27,–
C[C@@H](CN1CCC2(CC1)OC(=O)NN=C2c1ccc(F)cc1Cl)NC(=O)c1cc(C(F)(F)F)on1 [Example 99],373,241,–
CNC(=O)C(=O)N[C@@H](C)C[C@]1(C#N)CC[C@@]2(CC1)OC(=O)NN=C2c1cc(OC(F)F)ccc1Br [Example 2-055],< 10,11,–
CNC(=O)C(=O)N[C@@H](C)CN1CCC2(CC1)OC(=O)NN=C2c1cccc(F)c1Br [Example 2-030],18,31,–
C[C@@H](CC1CCC2(CC1)OC(=O)NN=C2c1ccncc1Br)NC(=O)c1cc(Cl)no1 (mixture of isomers) [Example 121],< 10,< 10,–
CNC(=O)C(=O)N[C@@H](C)C[C@H]1CC[C@]2(CC1)OC(=O)NN=C2c1ccc(C(C)=O)cc1C [Example 167],< 10,20,–
CNC(=O)C(=O)N[C@@H](C)C[C@]1(C#N)CC[C@@]2(CC1)OC(=O)NN=C2c1cc(OCC(F)F)ncc1Br [Example 2-099],–,–,inhibition at 10 µM (full-length human PLD1; read-out: human PLD1 % inhibition at 10 μM): 21%; inhibition at 10 µM (full-length human PLD1; read-out: inhibition rate of PLD1 at 10 μM compound): 21%
CNC(=O)C(=O)N[C@@H](C)C[C@]1(C#N)CC[C@@]2(CC1)OC(=O)N(C)N=C2c1cc(C#N)ccc1Br [Example 2-112],–,–,inhibition at 10 µM (full-length human PLD2; read-out: human PLD2 % inhibition at 10 μM): 39%; inhibition at 10 µM (full-length human PLD2; read-out: inhibition rate of PLD2 at 10 μM compound): 39%
